What all share (assay): relative viability (nuclei count vs DMSO), 5 days (fraction); higher = more cells survive
Compound in experiment [1]: CN[C@@H]1C[C@H]2O[C@@](C)([C@@H]1OC)n1c3ccccc3c3c4c(c5c6ccccc6n2c5c31)C(=O)NC4 [Staurosporine] + C[C@@H](Oc1cc(-c2cnn(C3CCNCC3)c2)cnc1N)c1c(Cl)ccc(F)c1Cl [Crizotinib] (partner 1 µM)
The method, boiled down:
(§1)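 Relative viability equals treated-well nuclei counts divided by vehicle-well nuclei counts. Counts came from 4× images of lung cancer cell lines grown in 1536-well plates for 5 days after pin-tool dosing on the day after seeding. Dosing used one drug alone or a fixed anchor-drug dose plus five library-drug doses (not always all listed) in √10 steps, and values are medians of duplicate plates.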

Compound in experiment [2]: O=c1[nH]cc(F)c(=O)[nH]1 [5-Fluorouracil] + Cc1nc(NC(=O)N2CCC[C@H]2C(N)=O)sc1-c1ccnc(C(C)(C)C(F)(F)F)c1 [Alpelisib] (partner 2 µM)
Put shortly:
as §1

Compound in the experiment “Sulindac + Alpelisib”: CC1=C(CC(=O)O)c2cc(F)ccc2/C1=C\c1ccc([S+](C)[O-])cc1 [Sulindac] + Cc1nc(NC(=O)N2CCC[C@H]2C(N)=O)sc1-c1ccnc(C(C)(C)C(F)(F)F)c1 [Alpelisib] (partner 2 µM)
Put shortly:
as §1

Compound in experiment [3]: CN[C@@H]1C[C@H]2O[C@@](C)([C@@H]1OC)n1c3ccccc3c3c4c(c5c6ccccc6n2c5c31)C(=O)NC4 [Staurosporine] + Cc1nc(NC(=O)N2CCC[C@H]2C(N)=O)sc1-c1ccnc(C(C)(C)C(F)(F)F)c1 [Alpelisib] (partner 2 µM)
The method, boiled down:
as §1

PC-14: the relative viability in experiment [1] (first compound 0.005 µM) came to 0.683; in experiment [1] (first compound 0.01581 µM), 0.714; in experiment [1] (first compound 0.05 µM), 0.141; in experiment [1] (first compound 0.1581 µM), 0.0852; in experiment [1] (first compound 0.5 µM), 0.0777; in experiment [2] (first compound 0.02 µM) it was 1.02. The relative viability in experiment [2] (first compound 0.2 µM) was found to be 0.962; in experiment [2] (first compound 0.6325 µM) it was 0.748; in experiment [2] (first compound 2 µM) it was 0.424; with Sulindac + Alpelisib (first compound 0.08 µM) it was 0.986; with Sulindac + Alpelisib (first compound 0.253 µM), 1.16; with Sulindac + Alpelisib (first compound 2.53 µM) it was 1.13. The relative viability with Sulindac + Alpelisib (first compound 8 µM) is 1; in experiment [3] (first compound 0.005 µM) it was 0.693; in experiment [3] (first compound 0.01581 µM), 0.452; in experiment [3] (first compound 0.05 µM) it was 0.172; in experiment [3] (first compound 0.1581 µM), 0.0738; in experiment [3] (first compound 0.5 µM), 0.0496.

Regarding RERF-LC-KJ, the relative viability in experiment [1] (first compound 0.005 µM) worked out at 0.823; in experiment [1] (first compound 0.01581 µM), 0.717; in experiment [1] (first compound 0.05 µM), 0.516; in experiment [1] (first compound 0.1581 µM), 0.223; in experiment [1] (first compound 0.5 µM) it was 0.244; in experiment [2] (first compound 0.02 µM), 0.764. In addition, the relative viability stood at 0.836 in experiment [2] (first compound 0.2 µM); 0.852 in experiment [2] (first compound 0.6325 µM); 0.62 in experiment [2] (first compound 2 µM); 0.837 with Sulindac + Alpelisib (first compound 0.08 µM); 0.889 in the experiment with Sulindac + Alpelisib (first compound 0.253 µM); 0.65 with Sulindac + Alpelisib (first compound 0.8 µM). Also, the relative viability in the experiment with Sulindac + Alpelisib (first compound 2.53 µM) was 0.877; with Sulindac + Alpelisib (first compound 8 µM), 0.746; in experiment [3] (first compound 0.005 µM) it was 0.916; in experiment [3] (first compound 0.01581 µM), 0.637; in experiment [3] (first compound 0.05 µM) it was 0.392; in experiment [3] (first compound 0.1581 µM), 0.282. Besides, in experiment [3] (first compound 0.5 µM), the relative viability came out at 0.21.

Consider SK-LU-1, for which the relative viability turned out to be 0.372 in experiment [1] (first compound 0.005 µM); 0.198 in experiment [1] (first compound 0.01581 µM); 0.19 in experiment [1] (first compound 0.05 µM); 0.169 in experiment [1] (first compound 0.1581 µM); 0.161 in experiment [1] (first compound 0.5 µM); 0.934 in experiment [2] (first compound 0.02 µM). Further, the relative viability came out at 1.12 in experiment [2] (first compound 0.2 µM); 0.868 in experiment [2] (first compound 0.6325 µM); 0.704 in experiment [2] (first compound 2 µM); 1.11 with Sulindac + Alpelisib (first compound 0.08 µM); 1.02 in the experiment with Sulindac + Alpelisib (first compound 0.253 µM); 0.964 with Sulindac + Alpelisib (first compound 0.8 µM). The relative viability with Sulindac + Alpelisib (first compound 2.53 µM) is 0.936; in the experiment with Sulindac + Alpelisib (first compound 8 µM), 1.23; in experiment [3] (first compound 0.005 µM), 0.264; in experiment [3] (first compound 0.01581 µM) it was 0.188; in experiment [3] (first compound 0.05 µM), 0.18; in experiment [3] (first compound 0.1581 µM) it was 0.158. In addition, in experiment [3] (first compound 0.5 µM), the relative viability was 0.122.

Take SK-MES-1: the relative viability in experiment [1] (first compound 0.005 µM) stood at 0.718; in experiment [1] (first compound 0.01581 µM), 0.582; in experiment [1] (first compound 0.05 µM), 0.262; in experiment [1] (first compound 0.1581 µM) it was 0.184; in experiment [1] (first compound 0.5 µM), 0.11; in experiment [2] (first compound 0.02 µM) it was 0.798. Further, the relative viability in experiment [2] (first compound 0.2 µM) came to 0.789; in experiment [2] (first compound 0.6325 µM), 0.447; in experiment [2] (first compound 2 µM), 0.341; with Sulindac + Alpelisib (first compound 0.08 µM), 1.06; in the experiment with Sulindac + Alpelisib (first compound 0.253 µM), 1.05; with Sulindac + Alpelisib (first compound 0.8 µM) it was 0.601. Also, the relative viability with Sulindac + Alpelisib (first compound 2.53 µM) was determined as 0.815; with Sulindac + Alpelisib (first compound 8 µM), 0.982; in experiment [3] (first compound 0.005 µM) it was 0.849; in experiment [3] (first compound 0.01581 µM), 0.534; in experiment [3] (first compound 0.05 µM), 0.246; in experiment [3] (first compound 0.1581 µM) it was 0.18. Moreover, in experiment [3] (first compound 0.5 µM), the relative viability worked out at 0.177.

In the case of SW 1573, the relative viability was 0.678 in experiment [1] (first compound 0.005 µM); 0.583 in experiment [1] (first compound 0.01581 µM); 0.186 in experiment [1] (first compound 0.05 µM); 0.134 in experiment [1] (first compound 0.1581 µM); 0.119 in experiment [1] (first compound 0.5 µM); 0.705 in experiment [2] (first compound 0.02 µM). Further, the relative viability in experiment [2] (first compound 0.2 µM) is 0.877; in experiment [2] (first compound 0.6325 µM), 0.867; in experiment [2] (first compound 2 µM) it was 0.507; in the experiment with Sulindac + Alpelisib (first compound 0.253 µM) it was 0.706; with Sulindac + Alpelisib (first compound 2.53 µM), 0.793; in the experiment with Sulindac + Alpelisib (first compound 8 µM) it was 0.934. The relative viability in experiment [3] (first compound 0.005 µM) came out at 0.45; in experiment [3] (first compound 0.01581 µM), 0.299; in experiment [3] (first compound 0.05 µM), 0.144; in experiment [3] (first compound 0.1581 µM) it was 0.14; in experiment [3] (first compound 0.5 µM), 0.148.
